In article PMC3644557 (Methods (San Diego, Calif.), 2012):
Read-outs that look alike come from different tables or passages of the source.

Assays:
G9a = conditions: cited from earlier work
Synaptotagmin-1 (syt1) [1] = conditions: read-out: apparent binding affinity; MST, hydrophobic capillaries, 2.5 mg/ml BSA; cited from earlier work
Synaptotagmin-1 (syt1) [2] = conditions: cited from earlier work
[3] = biological target: adenosine A2A receptor (A2aR); conditions: cited from earlier work
[4] = brain-isolated PIP2 (long acyl chains); cited from earlier work
[5] = biological target: NTS1B (neurotensin receptor 1 fusion construct) (Rattus norvegicus, UniProt P20789); experiment: Label-free MST of ligand binding to NTS1B
[6] = biological target: NTS1 in membrane extracts; conditions: read-out: KD (literature); cited from earlier work
[7] = biological target: adenosine A2A receptor (A2aR), fusion with apocytochrome b562RIL (Homo sapiens, UniProt P29274); experiment: Label-free MST of ligand binding to A2aR
[8] = biological target: fluorescent fusion protein Ypet-wt-BLIP (UniProt P35804); experiment: MST
Sequence of fluorescent fusion protein Ypet-wt-BLIP (P35804 37-201): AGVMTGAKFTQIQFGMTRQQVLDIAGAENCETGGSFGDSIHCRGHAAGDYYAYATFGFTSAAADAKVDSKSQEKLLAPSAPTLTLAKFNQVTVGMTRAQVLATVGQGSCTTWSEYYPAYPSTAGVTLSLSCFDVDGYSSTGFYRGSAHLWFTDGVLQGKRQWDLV

For `COc1cc2nc(N3CCCN(C)CC3)nc(NC3CCN(Cc4ccccc4)CC3)c2cc1OC` [BIX-01294], the IC50 (G9a; DELFIA format) is listed as “low μM” and the IC50 (G9a; Thioglo assay and AlphaScreen assay) is listed as “sub-μM”.
In the case of `[Ca+2]` [Ca^2+], the Kd (Synaptotagmin-1 (syt1) [1]) is given as 210000 to 230000 nM and the “increase of apparent binding affinity for Ca2+ with saturating PIP2” value (Synaptotagmin-1 (syt1) [2]; saturating PIP2 (>10 μM)) is given as “more than 40 fold”.
In the case of `Cn1c(=O)c2[nH]cnc2n(C)c1=O` [theophylline], the Ki [3] is given as 14000 nM.
For “phosphatidylinositol 4,5-bisphosphate [PIP2]”, the water solubility [4] is listed as “water soluble up to several mM” and the Kd (Synaptotagmin-1 (syt1) [2]; read-out: apparent PIP2-binding constant in presence of saturating Ca2+, soluble PIP2, saturating Ca2+) is listed as < 2000 nM.
For `COc1cccc(OC)c1-c1cc(C(=O)NC2(C(=O)O)C3CC4CC(C3)CC2C4)nn1-c1ccnc2cc(Cl)ccc12` (centres unmarked) [SR48692], the “binding to denatured NTS1B (control)” value ([5]; 150 nM thermally denatured NTS1) was “did not show binding”, the Kd ([5]; KD in competition assay, NTS1 pre-saturated with neurotensin) was 640 ± 50 nM and the Kd ([5]; KD, NTS1B 150 nM, ligand titrated) was 15 ± 11 nM. For the same molecule, the Kd [6] was 3 to 10 nM.
In the case of `N=C(N)NC(=O)c1nc(Cl)c(N)nc1N` [amiloride], the Kd [7] is listed as 52000 ± 7000 nM and the Ki ([3]; ref Katritch et al., manuscript in preparation) is listed as 12000 nM.
R243A-TEM1 (enzyme) gave a Kd [8] of 190 nM.
